Test results published in patent publication US20220062291A1, “COMPOSITIONS AND METHODS OF TREATING CANCERS BY ADMINISTERING A PHENOTHIAZINE-RELATED DRUG THAT ACTIVATES PROTEIN PHOSPHATASE 2A (PP2A) WITH REDUCED INHIBITORY ACTIVITY TARGETED TO THE DOPAMINE D2 RECEPTOR AND ACCOMPANYING TOXICITY” (DANA-FARBER CANCER INSTITUTE, INC., priority 2018, published 2022).
“Also recorded” adds a separate entry of the source.

Tests used:
[1] = tested on: p-ERK and p-AKT in KOPT-K1 cells; test: Western blot of p-ERK and p-AKT; assay type: cell-based, human; conditions: three hours
Text: Levels of the PP2A endogenous substrates p-ERK and p-AKT in KOPT-K1 cells were examined because of the importance of the MAPK/ERK and PI3K/AKT/mTOR pathways in cancer cells.

[2] = female, C57BL/6, mouse, in vivo, po, 1 week
Protocol: (§4) PPZ and iPAP1 were each given per orally to eight-week-old female C57BL/6 mice every 24 hours (n=3 for each cohort). The mice were monitored for four recognized types of dopamine receptor D2 mediated toxicity, namely: i) general activity; ii) reactivity to touch; iii) fear/startle to sound; and iv) tone of abdominal muscle. Behavioral monitoring was done at 15 minutes, 1 hour, 4 hours and 24 hours after each treatment. PPZ and iPAP1 were each administered at 0, 2.5, 5, 10, 20 and 40 mg/kg body weight/dose, and iPAP1 was also administered at 80 mg/kg body weight/dose.

[3] = tested on: PP2A subunits; test: Co-immunoprecipitation of PP2A subunits (holoenzyme assembly); set-up: species or system human; conditions: KOPT-K1 cells, 10 μM, 24 hours
Text: (§1) The biochemical activity of iPAP1 was further characterized by addressing whether it acts exclusively on the three identified subunits to mediate the assembly of PP2A, or whether other proteins expressed by T-ALL cells are also required. Using baculovirus vectors, each subunit of PP2A was first expressed with a C-terminal tag in Hi5 insect cells, and then purified the subunit proteins using columns with antibodies against the tags bound to agarose beads (see, Example 5, FIG. 13-FIG. 14). […] PP2A is a unique enzyme consisting of three subunits and it needs to be properly assembled into a holoenzyme before it mediates phosphatase activity. […] The protein lysates were then immunoprecipitated with anti-PPP2CA antibody or normal IgG as a control, and the precipitates were immunoblotted with antibodies specifically detecting each of the PP2A subunits. […] Nuclear and cytoplasmic fractions were separated using NE-PER™ Nuclear and Cytoplasmic Extraction Kit (Thermo Fisher Scientific), and each of the subunits of PP2A was analyzed by western blot. Histone H3 and α tubulin expression levels were used as loading controls for nuclear and cytoplasmic fractions, respectively. […] Lysates were immunoprecipitated using an anti-PPP2CA antibody, and then blotted with antibodies specific for each PP2A subunit. […] The results of a co-immunoprecipitation assay using an anti-PPP2CA antibody for immunoprecipitation in KOPT-K1 cells treated with SMAP at 10 μM or control DMSO for 24 hours before they were lysed for protein extraction are illustrated in FIG. 9B. Lysates were immunoprecipitated using an anti-PPP2CA antibody, and then blotted with antibodies specific for each PP2A subunit.

[4] = in vivo; conditions: female, mouse, po
Protocol: as §4

[5] = target: T1, human dopamine receptor D2 (DRD2) (Homo sapiens, UniProt P14416); test: Dopamine receptor D2 inhibition assay (SRE-luciferase reporter in HEK293T cells); assay type: cell-based; conditions: for inhibitory activity on DRD2: 0.5, 1, 2 and 4 μM for three hours with 2 μM dopamine
T1 construct: expressed in transfected cells; host or cells: HEK293T (pcDNA3 vectors)
T1 sequence (P14416 whole entry): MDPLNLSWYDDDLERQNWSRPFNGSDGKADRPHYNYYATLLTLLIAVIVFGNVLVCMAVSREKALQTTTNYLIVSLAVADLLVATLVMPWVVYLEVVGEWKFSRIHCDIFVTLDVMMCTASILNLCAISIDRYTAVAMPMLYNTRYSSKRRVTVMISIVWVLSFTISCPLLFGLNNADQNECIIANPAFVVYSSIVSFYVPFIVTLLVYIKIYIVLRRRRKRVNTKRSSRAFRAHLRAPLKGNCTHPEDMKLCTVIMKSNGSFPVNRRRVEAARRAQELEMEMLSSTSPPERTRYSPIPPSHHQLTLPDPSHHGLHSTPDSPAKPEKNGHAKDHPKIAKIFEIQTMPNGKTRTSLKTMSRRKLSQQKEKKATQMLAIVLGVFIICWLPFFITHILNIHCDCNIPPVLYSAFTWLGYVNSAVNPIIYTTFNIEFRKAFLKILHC
Text: (§2) The human dopamine receptor D2 (DRD2) and modified murine Gq5i cDNAs were inserted into pcDNA3 expression vectors. After verifying the PCR products by DNA sequencing, DRD2, Gq5i and the PathDetect pSRE-Luc Cis-Reporter Plasmid (#219080, Agilent Technologies) were transfected to HEK293T cells. As previously reported, Gq5i enables Gi/o-coupled receptor activity to be detected using a serum response element (SRE)-luciferase reporter gene (See, Conklin et al., Nature 363(6426):274-6 (1993); Al-Fulaij et al., J. Pharmacol. Exp. Ther. 321(1):298-307 (2007)). These cells were starved in FCS-free DMEM medium for six hours before incubating them with 2 μM dopamine hydrochloride (Sigma Aldrich) together with each of the compound at 0, 0.5, 1, 2 and 4 μM for three hours. The reporter activity was measured using Pierce™ Firefly Luciferase Glow Assay Kit (Thermo Fisher Scientific).
(§3) For IC50 calculation, KOPT-K1 cells were treated with each of the compounds at various concentrations for 72 hours, followed by the determination of viable cell numbers with PrestoBlue® cell viability reagent. For the PP2A phosphatase activity assay, KOPT-K1 cells were treated with each of the compounds at 10 μM for 3 hours before phosphatase activity was measured. Dopamine D2 receptor activity was monitored in HEK293T cells coexpressing the dopamine D2 receptor, modified G protein and SRE luciferase reporter. Cells were treated with each of the compound at 10 μM for 3 hours, then lysed for the luciferase reporter assay.
as §2, with “D2” for “D2 (DRD2)”, “363(6426):274-276” for “363(6426):274-6”, “0.5” for “0, 0.5, 1, 2 and 4”

[6] = target: T2, PP2A subunits (Homo sapiens, UniProt P30153+P67775+Q16537); test: Co-immunoprecipitation of PP2A subunits (holoenzyme assembly); conditions: purified subunits from insect cells
T2 construct: are endogenously expressed by KOPTK1 cells; endogenous in cells; host or cells: KOPT-K1 T-ALL cells / lysates
T2 sequence (P30153 2-589): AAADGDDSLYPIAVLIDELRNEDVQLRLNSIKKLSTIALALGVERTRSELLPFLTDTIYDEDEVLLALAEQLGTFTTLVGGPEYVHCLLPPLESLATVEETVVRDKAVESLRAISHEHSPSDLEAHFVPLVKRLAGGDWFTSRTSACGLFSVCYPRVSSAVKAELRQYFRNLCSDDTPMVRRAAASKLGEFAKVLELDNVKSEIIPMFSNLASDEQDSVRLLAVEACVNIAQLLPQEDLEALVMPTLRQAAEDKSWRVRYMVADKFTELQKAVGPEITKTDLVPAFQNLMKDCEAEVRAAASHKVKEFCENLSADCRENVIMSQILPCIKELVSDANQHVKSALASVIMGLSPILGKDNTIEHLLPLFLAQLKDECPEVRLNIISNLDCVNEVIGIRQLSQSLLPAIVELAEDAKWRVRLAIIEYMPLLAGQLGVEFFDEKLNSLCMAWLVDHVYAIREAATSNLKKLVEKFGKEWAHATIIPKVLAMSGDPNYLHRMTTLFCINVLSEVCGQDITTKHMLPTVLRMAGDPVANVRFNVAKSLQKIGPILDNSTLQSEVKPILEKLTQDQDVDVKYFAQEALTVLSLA
T2 sequence (P67775 whole entry): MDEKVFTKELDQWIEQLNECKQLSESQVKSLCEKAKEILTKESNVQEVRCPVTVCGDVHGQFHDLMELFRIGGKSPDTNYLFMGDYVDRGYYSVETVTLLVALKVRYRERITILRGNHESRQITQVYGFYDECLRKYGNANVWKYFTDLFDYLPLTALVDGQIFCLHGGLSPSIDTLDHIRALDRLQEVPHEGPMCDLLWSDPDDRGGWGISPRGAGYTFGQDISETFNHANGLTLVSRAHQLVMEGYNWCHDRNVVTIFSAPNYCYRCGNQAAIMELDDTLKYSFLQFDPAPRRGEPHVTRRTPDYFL
T2 sequence (Q16537 2-467): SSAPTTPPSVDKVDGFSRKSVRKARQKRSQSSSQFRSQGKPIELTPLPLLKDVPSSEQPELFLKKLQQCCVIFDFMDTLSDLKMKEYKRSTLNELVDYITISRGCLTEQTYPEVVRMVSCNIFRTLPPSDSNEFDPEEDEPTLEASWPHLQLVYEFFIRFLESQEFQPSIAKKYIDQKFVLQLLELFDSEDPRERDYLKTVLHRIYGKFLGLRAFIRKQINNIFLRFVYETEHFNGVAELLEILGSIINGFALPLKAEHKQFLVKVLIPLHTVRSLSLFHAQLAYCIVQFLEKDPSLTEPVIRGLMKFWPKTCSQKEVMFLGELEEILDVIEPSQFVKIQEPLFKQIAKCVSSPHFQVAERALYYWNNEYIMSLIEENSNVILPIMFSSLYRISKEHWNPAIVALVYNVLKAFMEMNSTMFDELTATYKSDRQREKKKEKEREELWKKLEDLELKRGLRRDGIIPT
Text: as §1

[7] = tested on: KOPT-K1, SUPT-13 and RPMI-8402 cells; test: Dose-response viability in three T-ALL cell lines, 72 hours; assay type: cell-based, human
Protocol: Viable cells are shown on the Y axis as a percent of the DMSO control cells. Data are presented as means±s.d. (n=3). Data are presented as means±s.d. […] The IC50 for iPAP1 is 200 to 400 nM for these cell lines.
(Perrotti and Neviani, Cancer Metastasis Rev. 27(2):159-68 (2008); Sangodkar et al., J. Clin. Invest. 127(6):2081-2090 ([…])). […] Data are presented as means±s.d.

[8] = target: T3, PP2A (Homo sapiens, UniProt P30153+P67775+Q16537); test: PP2A phosphatase activity in treated KOPT-K1 cells; assay type: cell-based
T3 construct: are endogenously expressed by KOPTK1 cells; endogenous in cells; host or cells: KOPT-K1 T-ALL cells / lysates
T3 sequence (P30153 2-589): as the sequence (P30153 2-589) above
T3 sequence (P67775 whole entry): as the sequence (P67775 whole entry) above
T3 sequence (Q16537 2-467): as the sequence (Q16537 2-467) above
Protocol: Data are presented as means±s.d. (n=3, biological replicates). KO; knock out. **P<0.01, ***P<0.001 by student's t-test.
as §3
For IC50 calculations, KOPT-K1 cells were treated with each of the compound at various concentrations for 72 hours, then their viability was examined by PrestoBlue® Cell Viability Reagent (Thermo Fisher Scientific). […] DRD2 activity was monitored in HEK293T cells expressing DRD2, modified G protein and SRE luciferase reporter. Cells were treated with each of the compounds at 10 μM for three hours, then lysed for luciferase reporter assay. […] The biochemical assays were performed as indicated in Examples 7 and 8.

SMILES | phosphorylation of ERK and AKT [1] | dose showing neurological toxicity [2] [mg/kg body weight/dose] | PP2A subunits co-immunoprecipitated with anti-PPP2CA antibody [3] | MTD at 1 week [4] [mg/kg] | inhibitory activity on DRD2 [5] | assembly of purified PPP2R1A, PPP2CA and PPP2R5E [6] | IC50 ([7]; Homo sapiens, KOPT-K1, SUPT-13 and RPMI-8402, 72 hours) [µM] | more active than SMAP against T-ALL cells based on the IC50 ([7]; SUPT-13, KOPT-K1 and RPMI-8402) [fold] | more active than PPZ for stimulating PP2A phosphatase activity ([8]; KOPT-K1, 10 μM for three hours) [times] | phosphatase activity of PP2A relative to basal level ([8]; WT KOPT-K1 cells, 1 μM) | inhibitory activities on DRD2 ([5]; 0.5 μM for three hours with 2 μM dopamine) | inhibitory activity against DRD2 compared to PPZ ([5]; 10 μM for three hours) [%] | DRD2 inhibitory activity as share of the activity of PPZ ([5]; 0.5 to 4 μM) | less active in inhibiting DRD2 than PPZ ([5]; multiple molar concentrations)
OCCN1CCN(CCCN2c3ccccc3Sc3ccc(Cl)cc32)CC1 [PPZ, perphenazine, reference compound] | significantly reduced | ≥ 5 | PPP2CA uniquely binds to PPP2R1A and PPP2R5E | 2.5 | strong inhibitory activity on DRD2 at 0.5 μM; also recorded: strong inhibitory activity of DRD2 activity at concentrations as low as 0.5 μM | – | – | – | – | – | – | – | – | –
COc1ccc(C(=O)N2c3ccccc3Sc3ccc(Cl)cc32)cc1 [iPAP1] | – | – | – | – | no inhibitory activity of DRD2 signaling at concentrations up to 4 μM | assembled into an active enzyme complex | 0.2 to 0.4 | ~5 | 10 | up to twice its basal level | did not show inhibitory activities on DRD2 | ~1 | less than 1% | more than 100 fold
